This note sets out measurements from patent US5190959A, “Piperidine compounds which have useful pharmaceutical activity” (Kaken Pharmaceutical Co. Ltd., priority 1991, dated 1993).

Structures are written as SMILES. Counter-ions that a name gives are not always drawn. Where only a bound is given, the exact number is not on record here.

In data set [1] the test system is anaphylactic histamine release from lung fragments. The data set can be described thus: Inhibition of anaphylactic histamine release (passively sensitized lung fragments, antigen challenge). Type of data set: cell-based, Hartley male guinea pig. Conditions: Cavia porcellus, 0.25 h; guinea pig lung fragments; DNP-egg albumin 0.3 μg/ml; compound added 10 min before antigen challenge; 37° C.; read-out: 25%-inhibitory conc. (anaphylactic histamine release). On the procedure: Inhibition of anaphylactic histamine release
Hartley male guinea pigs weighing about 450 g which were passively sensitized with an anti-DNP-egg albumin guinea pig serum were killed with a thiopentbarbital anesthetia. Their lungs were perfused by way of the pulmonary artery with a Tyrode's solution. The lungs were removed and fragmented. A definite weight of 100 mg lung fragments, which was distributed into individual tubes and suspended in 1 ml of Tyrode's solution, was challenged with the antigen (DNP-egg albumin, final concentration: 0.3 μg/ml) at 37° C. for 15 min. The test compounds obtained in Example, which were dissolved or suspended in Tyrode's solution, were added 10 min before antigen challenge. The reaction was stopped by immersing in ice cold water, and then centrifuged. The amount of histamine in the supernatant fluid was measured by using fluoremetric method according to Shore et al.
A: amount of histamine released by the antigen stimulation in the presence of a compound of the present invention
B: amount of histamine released spontaneously
C: amount of histamine released by the antigen stimulation.

Data set [2] deals with T1, histamine-induced constriction of tracheal smooth muscle (Cavia porcellus, UniProt P31389).
T1 construct: Isolated tracheal smooth muscle chain strips were prepared by a usual method; from tissue; host or cells: isolated tracheal smooth muscle chain strips of Hartley male guinea pigs
T1 sequence (P31389 whole entry): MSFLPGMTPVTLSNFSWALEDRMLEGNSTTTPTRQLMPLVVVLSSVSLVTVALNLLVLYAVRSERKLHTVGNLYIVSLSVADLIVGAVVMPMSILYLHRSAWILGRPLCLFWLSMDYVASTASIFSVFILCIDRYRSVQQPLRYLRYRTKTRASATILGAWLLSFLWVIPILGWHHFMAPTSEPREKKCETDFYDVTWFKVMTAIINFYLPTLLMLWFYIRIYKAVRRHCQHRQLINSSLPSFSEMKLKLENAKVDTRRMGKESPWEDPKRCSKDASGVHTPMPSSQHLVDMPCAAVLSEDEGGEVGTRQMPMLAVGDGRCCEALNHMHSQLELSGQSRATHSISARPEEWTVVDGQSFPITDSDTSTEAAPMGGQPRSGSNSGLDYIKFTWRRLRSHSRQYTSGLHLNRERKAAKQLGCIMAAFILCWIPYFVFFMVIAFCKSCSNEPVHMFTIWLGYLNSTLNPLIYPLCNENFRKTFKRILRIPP
In words: Antihistaminic activity (isolated tracheal smooth muscle chain strips, histamine constriction). Type of data set: cell-based, Hartley male guinea pig. Conditions: guinea pig tracheal strip; compound 5 min prior to histamine; Van Rossum; read-out: pA2 (converted). On the procedure:
Hartley male guinea pigs weighing 500-600 g were used. Isolated tracheal smooth muscle chain strips were prepared by a usual method and suspended in 2 ml organ bath of Tyrode's solution aerated with 95% O2.5 % CO2 at 37° C. Each strip was attached to an isotonic transducer (made by Nihon Koden Kogyo KK) with a load of 0.5 g. After almost constant contraction, histamine was added cumulatively, until maximum constriction was obtained. The constriction of tracheal strip was recorded by Servocorder (made by Giraphtec KK). The strip was washed with Tyrode's solution and allowed to stabilize. Test compound was to the bath 5 min prior to the addition of histamine and the response curve to the histamine was repeated. The pA2 values were calculated using the techniques of Van Rossum.

A short description of data set [3]: Acute oral toxicity (LD50). Conditions: mouse, in vivo, mice 22-27 g, ddY, male, 5 weeks. The method, then: The LD50 of the compounds obtained in Examples 1, 34, 37, 40 and 44 were more than 500 mg/kg when these compounds were given orally to mice weighing 22-27 g (ddY, male, 5 weeks).
In another data set the test system is isolated heart. The data set can be described thus: Langendorff perfused isolated heart: perfusion pressure, contractive force, heart rate. On the set-up: species or system Wistar male rat. As to conditions: for Contractive force (Δ %) / Heart rate (Δ %) / Perfusion pressure (Δ %): means value ± S.D., n = 3-4. On the procedure:
Hearts were isolated from Std; Wistar male rats weighing 200-300 g (9-10 weeks old). The hearts were perfused using Langendorff's apparatus at a flow rate of 8 ml/min. As a perfusate, Krebs-Henseleit-bicarbonate solution (37° C., pH 7.4) containing 11 mM glucose, oxygenated with a mixed gas of 95% O2 and 5% CO2 was used. The heart was preloaded with an initial resting tension of 2.0 g and paced at 200-300 beats min^-1. After the hearts were allowed to be stable for 30-60 minutes, 0.1 ml of a solution of each test compound in 10% DMSO was added thereto to be a concentration of 0.1, 1.0, 10 or 100 μg of each compound per heart.
Myocardial contractile force was isometrically measured by means of a force-displacement transducer (Type: TB-612T, made by Nihon Kohden Kogyo KK) connected to the apex of the heart through a thread. Coronary perfusion pressure was monitored by an electric manometer (Type: MPU-0.5, made by Nihon Kohden Kogyo KK) connected to a side branch of the aortic cannule.
[formula] A: value before adding a test compound B: value after adding a test compound

Setting [4] is: 1 μg/heart, ** p <0.01 vs control.
The mark [5] stands for this setting: 10 μg/heart, ** p <0.01 vs control.
Setting [6] is: 100 μg/heart, ** p <0.01 vs control.

Regarding `CC(CCOc1ccccc1NS(C)(=O)=O)N1CCC(OC(c2ccccc2)c2cccs2)CC1` (stereo not drawn) [Example 37, 4-(phenyl-2-thienylmethoxy)-1-[3-(2-methanesulfonylaminophenoxy)-1-methylpropyl]piperidine], the IC25 in data set [1] turned out to be 100 nM. For the same compound, in data set [2], the Kb is 3.98 nM. This compound returned an LD50 in data set [3] of over 500 mg/kg.
For `CS(=O)(=O)Nc1ccccc1OCCCN1CCC(OC(c2ccsc2)c2ccsc2)CC1` [Example 44 (fumarate)], the IC25 in data set [1] was found to be 30 nM. In addition, the Kb in data set [2] is 2.51 nM.
On to `COc1ccc([C@@H]2Sc3ccccc3N(CCN(C)C)C(=O)[C@@H]2OC(C)=O)cc1` [Diltiazem hydrochloride, reference compound], for which the “Contractive force (Δ %)” value with isolated heart (0.1 μg/heart) is 3.5 ± 6.9%; in the data set on isolated heart (setting [4]), 7.0 ± 16.1%; in the data set with isolated heart (setting [5]), -67.1 ± 17.5%; with isolated heart (setting [6]), -86.5 ± 7.0%. Also, the “Heart rate (Δ %)” value in the data set on isolated heart (0.1 μg/heart) was -2.7 ± 1.8%; in the data set on isolated heart (1 μg/heart), -3.5 ± 2.4%; with isolated heart (setting [5]), -25.9 ± 30.3%; in the data set on isolated heart (setting [6]) it was -71.4 ± 11.9%. The entries for the “Perfusion pressure (Δ %)” value in the data set with isolated heart (setting [4]), in the data set with isolated heart (setting [5]) and in the data set with isolated heart (setting [6]) were -32.1 ± 6.9%, -47.1 ± 1.4% and -48.8 ± 1.4%, respectively. Further, the “contractive force (in words)” value in the data set with isolated heart (10 μg/heart) is on record as “significant lowerings”. Besides, in the data set on isolated heart (10 μg/heart), the “heart rates (in words)” value is reported as “significant lowerings”.
`CS(=O)(=O)Nc1ccccc1OCCCN1CCC(OC(c2ccccc2)c2cccs2)CC1` (stereo not drawn) [Example 36 (fumarate)]: the IC25 in data set [1] stood at 100 nM. In addition, the Kb in data set [2] is 2.51 nM.
For the compound `CS(=O)(=O)Nc1ccccc1OC/C=C\CN1CCC(OC(c2ccccc2)c2cccs2)CC1` (stereo not drawn) [Example 40, 4-(phenyl-2-thienylmethoxy)-1-[4-(2-methanesulfonylaminophenoxy)-2(Z)-butenyl]piperidine], the IC25 in data set [1] turned out to be 100 nM. Besides, in data set [2], the Kb was 6.31 nM. This compound registered an LD50 in data set [3] of over 500 mg/kg.
As for `CS(=O)(=O)Nc1ccccc1OCCCN1CCC(OC(c2ccccc2)c2cccnc2)CC1` (stereo not drawn) [Example 34 (fumarate)], in data set [1], the IC25 was 1000 nM. Further, in data set [2], the Kb is 0.126 nM.
As for `CS(=O)(=O)Nc1ccccc1OCCCN1CCC(OC(c2ccc(Cl)cc2)c2ccccn2)CC1` (stereo not drawn) [Example 33, 4-[(4-chlorophenyl)-2-pyridylmethoxy]-1-[3-(2-methanesulfonylaminophenoxy)propyl]piperidine], the “Contractive force (Δ %)” value is 5.0 ± 4.3% in the data set on isolated heart (0.1 μg/heart), 13.3 ± 1.9% with isolated heart (setting [4]), 16.0 ± 4.5% in the data set on isolated heart (setting [5]) and -46.2 ± 13.4% in the data set with isolated heart (setting [6]). Moreover, the “Heart rate (Δ %)” value in the data set with isolated heart (0.1 μg/heart) was -1.2 ± 2.1%; with isolated heart (1 μg/heart), -1.9 ± 1.8%; in the data set on isolated heart (setting [5]), -4.6 ± 4.7%; in the data set on isolated heart (setting [6]), -17.2 ± 10.1%. The “Perfusion pressure (Δ %)” value is -7.0 ± 6.1% in the data set with isolated heart (0.1 μg/heart), -19.2 ± 2.2% in the data set with isolated heart (setting [4]), -39.1 ± 5.4% in the data set on isolated heart (setting [5]) and -40.1 ± 5.2% in the data set on isolated heart (setting [6]).
Consider `CS(=O)(=O)Nc1ccccc1OCCCN1CCC(OC(c2ccccc2)c2ccccc2)CC1` [Example 1, 4-diphenylmethoxy-1-[3-(2-methanesulfonylaminophenoxy)propyl]piperidine], for which, in data set [1], the IC25 stood at 1000 nM. The Kb in data set [2] is 2 nM. The “Contractive force (Δ %)” value is given as 2.0 ± 3.6% with isolated heart (0.1 μg/heart), 11.9 ± 2.4% in the data set on isolated heart (setting [4]), 11.8 ± 2.3% with isolated heart (setting [5]) and -25.0 ± 6.8% in the data set with isolated heart (setting [6]). Also, the “Heart rate (Δ %)” value is reported as 0.7 ± 1.2% with isolated heart (0.1 μg/heart), -0.7 ± 1.2% in the data set on isolated heart (1 μg/heart), -0.7 ± 1.2% with isolated heart (setting [5]) and -16.6 ± 15.6% with isolated heart (setting [6]). In addition, the “Perfusion pressure (Δ %)” value in the data set on isolated heart (0.1 μg/heart) was -8.39 ± 3.4%; in the data set with isolated heart (setting [4]), -24.8 ± 3.0%; in the data set on isolated heart (setting [5]), -42.9 ± 3.2%; in the data set with isolated heart (setting [6]) it was -49.0 ± 4.8%. In data set [3], this compound came in with an LD50 of over 500 mg/kg.
With `CS(=O)(=O)Nc1ccccc1OCCCN1CCC(OC(c2ccsc2)c2ccsc2)CC1` [Example 44, 4-di(3-thienyl)methoxy-1-[3-(2-methanesulfonylaminophenoxy)propyl]piperidine], the “Contractive force (Δ %)” value in the data set with isolated heart (0.1 μg/heart) is listed as 8.8 ± 2.5%; in the data set on isolated heart (setting [4]), 19.1 ± 5.7%; with isolated heart (setting [5]) it was 16.2 ± 11.3%; with isolated heart (setting [6]) it was -46.3 ± 19.4%. The “Heart rate (Δ %)” value in the data set on isolated heart (0.1 μg/heart) is given as -5.7 ± 1.4%; in the data set with isolated heart (1 μg/heart), -3.6 ± 4.1%; with isolated heart (setting [5]) it was -6.3 ± 1.5%; with isolated heart (setting [6]), -59.9 ± 11.1%. In addition, the “Perfusion pressure (Δ %)” value is on record as -6.0 ± 13.7% in the data set with isolated heart (0.1 μg/heart), -28.9 ± 3.0% in the data set with isolated heart (setting [4]), -47.9 ± 4.8% in the data set on isolated heart (setting [5]) and -55.8 ± 3.5% in the data set with isolated heart (setting [6]). In data set [3], the LD50 was over 500 mg/kg.
`CS(=O)(=O)Nc1ccccc1OCCCN1CCC(OC(c2ccccc2)c2cccnc2)CC1` (stereo not drawn) [Example 34, 4-(phenyl-3-pyridylmethoxy)-1-[3-(2-methanesulfonylaminophenoxy)propyl]piperidine] showed an LD50 in data set [3] of over 500 mg/kg.
As for `CC(C)c1ccc2oc3nc(N)c(C(=O)O)cc3c(=O)c2c1` [Amlexanox, reference compound], the IC25 in data set [1] stood at 30000 nM.
Turning to `O=c1[nH]c2ccccc2n1CCCN1CCN(C(c2ccccc2)c2ccccc2)CC1` [Oxatomide, reference compound], the IC25 in data set [1] stood at 100000 nM. For the same compound, the Kb in data set [2] was 1.26 nM.
